Read-outs that look alike come from different tables or passages of the source.
Experiments:
[1] = target: T1, TORC1 (Saccharomyces cerevisiae, UniProt P35169); experiment: Yeast TORC1 kinase activity assays (radioactive IVK, Lst4^Loop substrate); type: biochemical; details: for In vitro TORC1 kinase assay - CoA compounds, relative activity, Mean: Fig. 8b; for IC50: Lst4^Loop phosphorylation, detection limit 6 mM, n = 3, read-out: IC50 (yeast TORC1 IVK)
T1 construct: made in house; host or cells: S. cerevisiae strain NIC005 ([RL170-2c] LEU2:GFP-TOR1)
T1 sequence (P35169 whole entry): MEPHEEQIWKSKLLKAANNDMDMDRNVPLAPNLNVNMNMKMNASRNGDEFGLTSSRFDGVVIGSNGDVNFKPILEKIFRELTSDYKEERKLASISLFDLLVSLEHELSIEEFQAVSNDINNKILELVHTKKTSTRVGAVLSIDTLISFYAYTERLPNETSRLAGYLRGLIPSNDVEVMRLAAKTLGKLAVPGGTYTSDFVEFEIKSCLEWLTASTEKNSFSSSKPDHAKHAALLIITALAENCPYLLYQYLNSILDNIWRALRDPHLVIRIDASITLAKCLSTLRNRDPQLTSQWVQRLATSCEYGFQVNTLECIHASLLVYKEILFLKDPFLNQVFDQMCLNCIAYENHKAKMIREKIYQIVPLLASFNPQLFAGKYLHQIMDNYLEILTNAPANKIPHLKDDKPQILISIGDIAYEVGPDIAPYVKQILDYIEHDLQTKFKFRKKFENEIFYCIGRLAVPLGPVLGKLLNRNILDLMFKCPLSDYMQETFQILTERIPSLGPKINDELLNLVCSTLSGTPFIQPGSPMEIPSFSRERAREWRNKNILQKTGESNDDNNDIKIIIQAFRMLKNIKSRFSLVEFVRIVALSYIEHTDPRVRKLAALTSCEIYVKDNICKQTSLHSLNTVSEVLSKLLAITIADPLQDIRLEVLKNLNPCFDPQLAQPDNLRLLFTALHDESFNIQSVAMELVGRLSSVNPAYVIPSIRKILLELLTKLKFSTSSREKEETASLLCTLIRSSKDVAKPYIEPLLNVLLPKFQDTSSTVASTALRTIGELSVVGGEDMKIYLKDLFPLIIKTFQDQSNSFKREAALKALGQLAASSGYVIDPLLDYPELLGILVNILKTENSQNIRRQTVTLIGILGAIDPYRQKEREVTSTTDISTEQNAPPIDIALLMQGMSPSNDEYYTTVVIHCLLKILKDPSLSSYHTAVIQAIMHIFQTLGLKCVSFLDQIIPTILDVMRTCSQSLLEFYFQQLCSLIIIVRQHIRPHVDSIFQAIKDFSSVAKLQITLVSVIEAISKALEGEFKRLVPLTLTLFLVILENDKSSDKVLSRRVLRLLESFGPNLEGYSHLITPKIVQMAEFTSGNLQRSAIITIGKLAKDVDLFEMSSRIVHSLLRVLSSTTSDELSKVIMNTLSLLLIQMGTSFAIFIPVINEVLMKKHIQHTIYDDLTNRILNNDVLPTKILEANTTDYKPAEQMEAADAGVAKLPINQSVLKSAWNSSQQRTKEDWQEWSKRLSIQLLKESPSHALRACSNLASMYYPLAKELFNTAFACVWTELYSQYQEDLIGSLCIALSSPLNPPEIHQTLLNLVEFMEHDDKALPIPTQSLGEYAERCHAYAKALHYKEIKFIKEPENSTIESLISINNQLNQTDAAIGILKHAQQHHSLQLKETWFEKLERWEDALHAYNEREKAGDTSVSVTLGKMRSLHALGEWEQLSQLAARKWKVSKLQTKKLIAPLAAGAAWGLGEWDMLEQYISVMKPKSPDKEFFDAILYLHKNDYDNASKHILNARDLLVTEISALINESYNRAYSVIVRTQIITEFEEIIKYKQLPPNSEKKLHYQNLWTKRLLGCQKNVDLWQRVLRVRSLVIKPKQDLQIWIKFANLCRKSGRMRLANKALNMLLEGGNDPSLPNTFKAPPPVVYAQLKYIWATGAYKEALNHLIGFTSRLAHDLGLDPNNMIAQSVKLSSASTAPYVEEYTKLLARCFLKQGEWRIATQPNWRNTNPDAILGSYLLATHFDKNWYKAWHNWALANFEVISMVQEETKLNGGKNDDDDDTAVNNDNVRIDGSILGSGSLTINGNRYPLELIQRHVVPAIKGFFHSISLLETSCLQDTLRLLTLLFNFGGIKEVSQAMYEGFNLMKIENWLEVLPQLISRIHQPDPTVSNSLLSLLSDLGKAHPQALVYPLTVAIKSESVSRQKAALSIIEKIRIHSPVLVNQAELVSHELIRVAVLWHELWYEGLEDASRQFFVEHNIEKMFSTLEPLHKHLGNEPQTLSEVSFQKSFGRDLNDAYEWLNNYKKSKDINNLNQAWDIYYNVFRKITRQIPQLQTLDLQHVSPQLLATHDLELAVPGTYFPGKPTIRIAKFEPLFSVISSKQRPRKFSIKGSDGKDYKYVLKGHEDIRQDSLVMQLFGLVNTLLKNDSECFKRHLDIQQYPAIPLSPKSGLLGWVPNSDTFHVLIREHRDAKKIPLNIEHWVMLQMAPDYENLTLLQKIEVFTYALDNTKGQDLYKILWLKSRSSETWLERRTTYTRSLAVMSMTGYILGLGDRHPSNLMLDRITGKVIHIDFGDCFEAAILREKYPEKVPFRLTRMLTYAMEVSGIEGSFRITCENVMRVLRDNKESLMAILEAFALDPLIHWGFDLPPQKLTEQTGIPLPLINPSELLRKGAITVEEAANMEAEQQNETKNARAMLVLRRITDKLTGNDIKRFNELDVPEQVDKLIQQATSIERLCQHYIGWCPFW
T1 sequence (Q08921 whole entry partner): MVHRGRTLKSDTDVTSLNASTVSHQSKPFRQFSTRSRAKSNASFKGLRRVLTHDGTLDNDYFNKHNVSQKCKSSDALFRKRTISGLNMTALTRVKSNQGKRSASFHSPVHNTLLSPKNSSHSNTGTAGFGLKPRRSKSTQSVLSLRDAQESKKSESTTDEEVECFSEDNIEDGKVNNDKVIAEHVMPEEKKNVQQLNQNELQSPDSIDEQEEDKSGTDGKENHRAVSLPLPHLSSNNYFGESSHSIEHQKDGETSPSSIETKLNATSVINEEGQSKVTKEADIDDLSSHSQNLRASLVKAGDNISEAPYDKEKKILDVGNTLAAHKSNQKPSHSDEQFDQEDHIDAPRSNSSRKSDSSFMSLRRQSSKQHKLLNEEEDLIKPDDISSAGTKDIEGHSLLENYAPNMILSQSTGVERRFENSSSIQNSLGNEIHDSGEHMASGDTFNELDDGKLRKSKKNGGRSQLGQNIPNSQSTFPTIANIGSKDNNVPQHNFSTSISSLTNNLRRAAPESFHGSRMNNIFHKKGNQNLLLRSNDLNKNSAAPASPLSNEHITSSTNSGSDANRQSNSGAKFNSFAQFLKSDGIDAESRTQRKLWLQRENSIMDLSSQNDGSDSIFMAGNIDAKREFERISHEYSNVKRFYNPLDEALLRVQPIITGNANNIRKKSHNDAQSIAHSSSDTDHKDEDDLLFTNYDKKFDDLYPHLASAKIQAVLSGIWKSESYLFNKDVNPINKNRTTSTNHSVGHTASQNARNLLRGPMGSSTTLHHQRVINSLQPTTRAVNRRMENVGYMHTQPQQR
T1 sequence (P38873 whole entry partner): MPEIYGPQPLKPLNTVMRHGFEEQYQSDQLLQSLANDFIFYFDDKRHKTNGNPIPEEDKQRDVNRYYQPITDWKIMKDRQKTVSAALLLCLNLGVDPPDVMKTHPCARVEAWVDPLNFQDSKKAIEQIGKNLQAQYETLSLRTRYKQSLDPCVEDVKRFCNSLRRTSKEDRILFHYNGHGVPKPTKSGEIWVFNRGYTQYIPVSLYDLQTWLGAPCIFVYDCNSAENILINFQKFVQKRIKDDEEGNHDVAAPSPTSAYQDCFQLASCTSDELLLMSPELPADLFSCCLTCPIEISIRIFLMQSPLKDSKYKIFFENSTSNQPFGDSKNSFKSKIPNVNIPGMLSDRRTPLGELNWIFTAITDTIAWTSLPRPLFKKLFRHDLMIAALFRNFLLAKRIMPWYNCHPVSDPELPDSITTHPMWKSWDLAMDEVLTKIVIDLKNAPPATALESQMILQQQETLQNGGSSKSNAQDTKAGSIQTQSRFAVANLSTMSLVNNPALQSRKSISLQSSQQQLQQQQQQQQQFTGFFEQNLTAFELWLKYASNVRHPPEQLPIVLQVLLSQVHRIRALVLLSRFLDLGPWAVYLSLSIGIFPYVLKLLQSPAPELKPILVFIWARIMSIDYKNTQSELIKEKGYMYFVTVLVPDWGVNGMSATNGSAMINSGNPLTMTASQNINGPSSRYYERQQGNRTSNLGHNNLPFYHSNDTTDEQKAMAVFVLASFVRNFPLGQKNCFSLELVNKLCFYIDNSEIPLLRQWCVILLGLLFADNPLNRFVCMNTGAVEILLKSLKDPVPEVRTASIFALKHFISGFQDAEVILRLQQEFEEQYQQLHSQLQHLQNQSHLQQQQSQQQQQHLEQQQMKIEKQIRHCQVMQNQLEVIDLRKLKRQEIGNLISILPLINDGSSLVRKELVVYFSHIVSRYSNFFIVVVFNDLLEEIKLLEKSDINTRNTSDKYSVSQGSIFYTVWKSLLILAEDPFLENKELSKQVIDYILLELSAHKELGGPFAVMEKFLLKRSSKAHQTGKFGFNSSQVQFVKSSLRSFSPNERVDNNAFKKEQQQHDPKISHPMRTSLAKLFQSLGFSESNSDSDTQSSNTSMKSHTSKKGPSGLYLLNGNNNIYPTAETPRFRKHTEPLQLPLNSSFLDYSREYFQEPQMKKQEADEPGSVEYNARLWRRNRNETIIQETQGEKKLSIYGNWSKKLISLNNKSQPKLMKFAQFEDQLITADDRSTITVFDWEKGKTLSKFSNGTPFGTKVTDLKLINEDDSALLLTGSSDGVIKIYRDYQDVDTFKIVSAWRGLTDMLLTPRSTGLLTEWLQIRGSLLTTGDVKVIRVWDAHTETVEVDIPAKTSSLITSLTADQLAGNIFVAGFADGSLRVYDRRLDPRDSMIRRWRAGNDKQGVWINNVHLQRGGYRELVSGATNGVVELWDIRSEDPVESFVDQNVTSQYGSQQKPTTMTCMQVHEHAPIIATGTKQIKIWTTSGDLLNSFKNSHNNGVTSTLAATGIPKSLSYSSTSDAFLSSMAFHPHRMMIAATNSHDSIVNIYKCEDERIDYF
T1 sequence (P41318 whole entry partner): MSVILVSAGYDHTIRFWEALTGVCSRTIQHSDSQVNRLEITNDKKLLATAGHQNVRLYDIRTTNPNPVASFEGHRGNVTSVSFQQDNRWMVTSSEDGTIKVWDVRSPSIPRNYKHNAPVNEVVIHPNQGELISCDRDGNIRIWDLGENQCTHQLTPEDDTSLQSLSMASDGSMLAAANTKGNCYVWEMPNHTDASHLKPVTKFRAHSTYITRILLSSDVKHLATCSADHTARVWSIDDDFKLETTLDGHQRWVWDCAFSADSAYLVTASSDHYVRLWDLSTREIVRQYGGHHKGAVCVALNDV
Description: TORC1 was purified from yeast cells and radioactive IVK assays were performed essentially as previously described. Briefly, kinase reactions (total volume, 30 μl) were performed with 400 ng of purified His6–Lst4^Loop protein and 60 ng TORC1 in kinase buffer (50 mM HEPES NaOH pH 7.5 and 150 mM NaCl). […] All reactions were carried out at 30 °C for 10 min and stopped with the addition of 3×sample buffer (50 mM Tris–HCl pH 6.8, 5% SDS, 0.05% bromophenol blue, 630 mM DTT and 30% glycerol) and heating at 65 °C for 10 min. Proteins were separated by SDS–PAGE and stained in-gel with SYPRO Ruby (S4942, Sigma-Aldrich) as the loading control. Substrate phosphorylation was analysed by autoradiography using a Typhoon FLA 9500 phosphorimager (GE Healthcare) and the raw density of the signals was quantified using the gel analysis tool of ImageJ.

[2] = target: T2, mTORC1 (Homo sapiens, UniProt P42345); experiment: Mammalian mTORC1 kinase activity assays (IVK, 4E-BP1 substrate); type: biochemical; details: for In vitro mTORC1 assay, p-4E-BP1(T37/46)/4E-BP1, Mean: Fig. 8f, relative to 0 mM
T2 construct: endogenous mTORC1 complexes were purified from HEK293FT cells; endogenous in cells; host or cells: HEK293FT (immunoprecipitation of endogenous mTOR); the 4E-BP1 substrate was made in E. coli BL21 RP
Description: Following the last wash step with CHAPS IP wash buffer, the beads were washed once with kinase wash buffer (25 mM HEPES pH 7.4 and 20 mM KCl) and excess liquid was removed using a Hamilton syringe—the final bead volume was approximately 10 μl. Kinase reactions were prepared by adding 10 μl of 3×kinase assay buffer (75 mM HEPES KOH pH 7.4, 60 mM KCl and 30 mM MgCl2) to the beads. […] The reactions were incubated at 30 °C for 30 min, and stopped by the addition of one volume of 2×SDS loading buffer and boiling (5 min, 95 °C). […] Signals were quantified using the gel analysis tool of ImageJ and are shown as the phospho-4E-BP1^T37/46/4E-BP1 ratio.

[3] = tested on: TORC1; experiment: TORC1 activity in yeast cells, p-Sch9^T737/Sch9 immunoblot; type: cell-based, Saccharomyces cerevisiae; details: wt Ctrl = 1
[4] = compound 0.073 mM, normalised to this concentration

CC(=O)SCCNC(=O)CCNC(=O)[C@H](O)C(C)(C)COP(=O)(O)OP(=O)(O)OC[C@H]1O[C@@H](n2cnc3c(N)ncnc32)[C@H](O)[C@@H]1OP(=O)(O)O [acetyl-CoA]
In vitro TORC1 kinase assay - CoA compounds, relative activity, Mean [1, 4]: 1
In vitro TORC1 kinase assay - CoA compounds, relative activity, Mean ([1]; compound 0.22 mM): 0.9698
In vitro TORC1 kinase assay - CoA compounds, relative activity, Mean ([1]; compound 2 mM): 0.7319
In vitro TORC1 kinase assay - CoA compounds, relative activity, Mean ([1]; compound 6 mM): 0.5296
IC50 [1]: 2880 µM
In vitro mTORC1 assay, p-4E-BP1(T37/46)/4E-BP1, Mean ([2]; compound 0.01 mM): 0.9483
In vitro mTORC1 assay, p-4E-BP1(T37/46)/4E-BP1, Mean ([2]; compound 0.05 mM): 0.8033
In vitro mTORC1 assay, p-4E-BP1(T37/46)/4E-BP1, Mean ([2]; compound 0.1 mM): 0.8597
In vitro mTORC1 assay, p-4E-BP1(T37/46)/4E-BP1, Mean ([2]; compound 0.5 mM): 0.644
In vitro mTORC1 assay, p-4E-BP1(T37/46)/4E-BP1, Mean ([2]; compound 1 mM): 0.6848
In vitro mTORC1 assay, p-4E-BP1(T37/46)/4E-BP1, Mean ([2]; compound 2.5 mM): 0.4704
In vitro mTORC1 assay, p-4E-BP1(T37/46)/4E-BP1, Mean ([2]; compound 5 mM): 0.3906
IC50 ([2]; mTORC1 immunoprecipitated from HEK293FT, recombinant 4E-BP1, 500 μM ATP): 1030 µM

CC(C)(COP(=O)(O)OP(=O)(O)OC[C@H]1O[C@@H](n2cnc3c(N)ncnc32)[C@H](O)[C@@H]1OP(=O)(O)O)[C@@H](O)C(=O)NCCC(=O)NCCS [CoA, coenzyme A]
In vitro TORC1 kinase assay - CoA compounds, relative activity, Mean [1, 4]: 1
In vitro TORC1 kinase assay - CoA compounds, relative activity, Mean ([1]; compound 0.22 mM): 1.005
In vitro TORC1 kinase assay - CoA compounds, relative activity, Mean ([1]; compound 2 mM): 0.9479
In vitro TORC1 kinase assay - CoA compounds, relative activity, Mean ([1]; compound 6 mM): 0.6805
IC50 [1]: > 6000 µM
IC50 [2]: > 5000 µM
In vitro mTORC1 assay, p-4E-BP1(T37/46)/4E-BP1, Mean ([2]; compound 0.01 mM): 0.8503
In vitro mTORC1 assay, p-4E-BP1(T37/46)/4E-BP1, Mean ([2]; compound 0.05 mM): 0.8507
In vitro mTORC1 assay, p-4E-BP1(T37/46)/4E-BP1, Mean ([2]; compound 0.1 mM): 1.093
In vitro mTORC1 assay, p-4E-BP1(T37/46)/4E-BP1, Mean ([2]; compound 0.5 mM): 0.8643
In vitro mTORC1 assay, p-4E-BP1(T37/46)/4E-BP1, Mean ([2]; compound 1 mM): 1.061
In vitro mTORC1 assay, p-4E-BP1(T37/46)/4E-BP1, Mean ([2]; compound 2.5 mM): 0.926
In vitro mTORC1 assay, p-4E-BP1(T37/46)/4E-BP1, Mean ([2]; compound 5 mM): 0.889

NC(=O)CC[C@H](N)C(=O)O [Gln, glutamine]
p-Sch9(T737)/Sch9, Mean ([3]; Acc1-GFP yeast, nitrogen-starved then +Gln 1 min, ED Fig. 2e): 0.2777
p-Sch9(T737)/Sch9, Mean ([3]; Acc1-GFP yeast, nitrogen-starved then +Gln 2 min, ED Fig. 2e): 0.2567
p-Sch9(T737)/Sch9, Mean ([3]; Acc1-GFP yeast, nitrogen-starved then +Gln 5 min, ED Fig. 2e): 0.172
p-Sch9(T737)/Sch9, Mean ([3]; acc1E392K yeast, nitrogen-starved then +Gln 1 min, ED Fig. 1g): 0.2184
p-Sch9(T737)/Sch9, Mean ([3]; acc1E392K yeast, nitrogen-starved then +Gln 2 min, ED Fig. 1g): 0.4052
p-Sch9(T737)/Sch9, Mean ([3]; acc1E392K yeast, nitrogen-starved then +Gln 5 min, ED Fig. 1g): 0.172
p-Sch9(T737)/Sch9, Mean ([3]; acc1E392K yeast, nitrogen-starved then +Gln 15 min, ED Fig. 1g): 0.07897
p-Sch9(T737)/Sch9, Mean ([3]; acc1E392K,S1157A yeast, nitrogen-starved then +Gln 1 min, ED Fig. 1g): 0.2597
p-Sch9(T737)/Sch9, Mean ([3]; acc1E392K,S1157A yeast, nitrogen-starved then +Gln 2 min, ED Fig. 1g): 0.4125
p-Sch9(T737)/Sch9, Mean ([3]; acc1E392K,S1157A yeast, nitrogen-starved then +Gln 5 min, ED Fig. 1g): 0.1831
p-Sch9(T737)/Sch9, Mean ([3]; acc1E392K,S1157A yeast, nitrogen-starved then +Gln 15 min, ED Fig. 1g): 0.0777
p-Sch9(T737)/Sch9, Mean ([3]; acc1S1157A yeast, nitrogen-starved then +Gln 1 min, ED Fig. 1g): 0.08981
p-Sch9(T737)/Sch9, Mean ([3]; acc1S1157A yeast, nitrogen-starved then +Gln 1 min, ED Fig. 2e): 0.1842
p-Sch9(T737)/Sch9, Mean ([3]; acc1S1157A yeast, nitrogen-starved then +Gln 1 min, Fig. 2e): 0.5322
p-Sch9(T737)/Sch9, Mean ([3]; acc1S1157A yeast, nitrogen-starved then +Gln 2 min, ED Fig. 1g): 0.2298
p-Sch9(T737)/Sch9, Mean ([3]; acc1S1157A yeast, nitrogen-starved then +Gln 2 min, ED Fig. 2e): 0.2323
p-Sch9(T737)/Sch9, Mean ([3]; acc1S1157A yeast, nitrogen-starved then +Gln 2 min, Fig. 2e): 0.5731
p-Sch9(T737)/Sch9, Mean ([3]; acc1S1157A yeast, nitrogen-starved then +Gln 5 min, ED Fig. 1g): 0.1433
p-Sch9(T737)/Sch9, Mean ([3]; acc1S1157A yeast, nitrogen-starved then +Gln 5 min, ED Fig. 2e): 0.1614
p-Sch9(T737)/Sch9, Mean ([3]; acc1S1157A yeast, nitrogen-starved then +Gln 5 min, Fig. 2e): 0.2159
p-Sch9(T737)/Sch9, Mean ([3]; acc1S1157A yeast, nitrogen-starved then +Gln 15 min, ED Fig. 1g): 0.0801
p-Sch9(T737)/Sch9, Mean ([3]; acc1S1157A yeast, nitrogen-starved then +Gln 15 min, Fig. 2e): 0.1147
p-Sch9(T737)/Sch9, Mean ([3]; acc1S1157A-GFP yeast, nitrogen-starved then +Gln 1 min, ED Fig. 2e): 0.2949
p-Sch9(T737)/Sch9, Mean ([3]; acc1S1157A-GFP yeast, nitrogen-starved then +Gln 2 min, ED Fig. 2e): 0.2508
p-Sch9(T737)/Sch9, Mean ([3]; acc1S1157A-GFP yeast, nitrogen-starved then +Gln 5 min, ED Fig. 2e): 0.1919
p-Sch9(T737)/Sch9, Mean ([3]; wt yeast, nitrogen-starved then +Gln 1 min, n = 3, ED Fig. 2e): 0.3518
p-Sch9(T737)/Sch9, Mean ([3]; wt yeast, nitrogen-starved then +Gln 1 min, n = 4, ED Fig. 1g): 0.1938
p-Sch9(T737)/Sch9, Mean ([3]; wt yeast, nitrogen-starved then +Gln 2 min, Fig. 2e): 0.8468
p-Sch9(T737)/Sch9, Mean ([3]; wt yeast, nitrogen-starved then +Gln 2 min, n = 3, ED Fig. 2e): 0.2928
p-Sch9(T737)/Sch9, Mean ([3]; wt yeast, nitrogen-starved then +Gln 2 min, n = 4, ED Fig. 1g): 0.4107
p-Sch9(T737)/Sch9, Mean ([3]; wt yeast, nitrogen-starved then +Gln 5 min, Fig. 2e): 0.2605
p-Sch9(T737)/Sch9, Mean ([3]; wt yeast, nitrogen-starved then +Gln 5 min, n = 3, ED Fig. 2e): 0.215
p-Sch9(T737)/Sch9, Mean ([3]; wt yeast, nitrogen-starved then +Gln 5 min, n = 4, ED Fig. 1g): 0.1743
p-Sch9(T737)/Sch9, Mean ([3]; wt yeast, nitrogen-starved then +Gln 15 min, Fig. 2e): 0.1412
p-Sch9(T737)/Sch9, Mean ([3]; wt yeast, nitrogen-starved then +Gln 15 min, n = 4, ED Fig. 1g): 0.07833

Reference: article PMC10495264 (Nature Cell Biology, 2023)
